In the supplement of paper PMC11061612:

Assays:
Test in all cases: combination Emax (second highest fraction inhibited in the dose matrix, 72 h); higher = more inhibition; extreme values may be limits of the assay
[1] = system: COR-L88 (Small Cell Lung Carcinoma)
In short: (§1)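 Cell lines in DMEM/F12 or RPMI with 10% FBS were plated in 1536-well plates, held 24 hours at 37°C, 5% CO2, then given two-drug dose matrices for 72 hours (DMSO typically 0.2%). Viability was read by CellTiter-Glo 2.0 luminescence and scaled as inhibition from 0 (vehicle wells) to 1 (blank wells). Combination Emax is the second-highest inhibition in the matrix; Bliss excess is observed combination effect minus expected EA + EB − EA·EB, EA and EB being single-agent effects.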

[2] = system: DBTRG-05MG (Glioblastoma)
In short: as §1

[3] = system: GAK (Melanoma)
In short: as §1

[4] = system: KALS-1 (Glioblastoma)
In short: as §1

[5] = system: LCLC-103H (Non-Small Cell Lung Carcinoma)
In short: as §1

[6] = system: MOLP-8 (Plasma Cell Myeloma)
In short: as §1

[7] = system: MOLT-13 (T-Lymphoblastic Leukemia)
In short: as §1

[8] = system: MONO-MAC-6 (Acute Myeloid Leukemia)
In short: as §1

[9] = system: NAMALWA (Burkitt's Lymphoma)
In short: as §1

[10] = system: NCI-H1876 (Small Cell Lung Carcinoma)
In short: as §1

[11] = system: OAW-28 (Ovarian Carcinoma)
In short: as §1

[12] = system: P30-OHK (B-Lymphoblastic Leukemia)
In short: as §1

[13] = system: P32-ISH (Burkitt's Lymphoma)
In short: as §1

[14] = system: PA-TU-8988T (Pancreatic Carcinoma)
In short: as §1

[15] = system: PL4 (Pancreatic Carcinoma)
In short: as §1

[16] = system: SK-N-SH (Neuroblastoma)
In short: as §1

[17] = system: SNU-407 (Colorectal Carcinoma)
In short: as §1

[18] = system: SUP-M2 (T-Cell Non-Hodgkin's Lymphoma)
In short: as §1

[19] = system: T47D (Breast Carcinoma)
In short: as §1

[20] = system: T84 (Colorectal Carcinoma)
In short: as §1

SMILES | combination Emax [1] | combination Emax [2] | combination Emax [3] | combination Emax [4] | combination Emax [5] | combination Emax [6] | combination Emax [7] | combination Emax [8] | combination Emax [9] | combination Emax [10] | combination Emax [11] | combination Emax [12] | combination Emax [13] | combination Emax [14] | combination Emax [15] | combination Emax [16] | combination Emax [17] | combination Emax [18] | combination Emax [19] | combination Emax [20]
COc1nnc2ccc(N3CCC(c4ccc(OCCN5CCN(C)C(=O)[C@H]5C)cc4)CC3)nn12 [AZD5153] + Cn1cnc2c(F)c(Nc3ccc(Br)cc3Cl)c(C(=O)NOCCO)cc21 [Selumetinib] (first compound max 1 µM, 7x7, partner max 10 µM) | 0.247 | 0.399 | 0.612 | 0.738 | 0.454 | 0.98 | 0.979 | 0.986 | 0.771 | 0.23 | 0.498 | 0.999 | 0.65 | 0.778 | 0.851 | 0.521 | 0.938 | 1 | 0.549 | 0.483
CC(=O)c1c(C)c2cnc(Nc3ccc(N4CCNCC4)cn3)nc2n(C2CCCC2)c1=O [Palbociclib] + Cn1cnc2c(F)c(Nc3ccc(Br)cc3Cl)c(C(=O)NOCCO)cc21 [Selumetinib] (first compound max 10 µM, 7x7, partner max 10 µM) | 0.223 | 0.338 | 0.697 | 0.432 | 0.248 | 0.553 | 0.721 | 0.669 | 0.595 | 0.312 | 0.344 | 0.408 | 0.699 | 0.514 | 0.523 | 0.371 | 0.654 | 0.88 | 0.265 | 0.33
Cc1c2c(nn1C)CSCc1cc(n(C)n1)CSc1cc(c3ccccc3c1)OCCCc1c(C(=O)O)n(C)c3c-2c(Cl)ccc13 [AZD5991] + C1CN(CCC1(C(=O)N[C@@H](CCO)C2=CC=C(C=C2)Cl)N)C3=NC=NC4=C3C=CN4 [Capivasertib] (first compound max 1 µM, 7x7, partner max 3 µM) | 0.259 | 0.199 | 0.179 | 0.469 | 0.242 | 1 | 1 | 1 | 1 | 0.673 | 0.224 | 0.71 | 1 | 0.34 | 0.339 | 0.387 | 0.774 | 1 | 0.579 | 0.0983
NC1(C(=O)N[C@@H](CCO)c2ccc(Cl)cc2)CCN(c2ncnc3[nH]ccc23)CC1 [Capivasertib] + CCN(CCO)CCCOc1ccc2c(Nc3cc(CC(=O)Nc4cccc(F)c4)[nH]n3)ncnc2c1 [AZD2811] (first compound max 10 µM, 7x7, partner max 1 µM) | 0.253 | 0.317 | 0.219 | 0.495 | 0.413 | 0.583 | 0.992 | 0.817 | 0.713 | 0.941 | 0.249 | 0.886 | 0.951 | 0.546 | 0.393 | 0.476 | 0.714 | 0.992 | 0.456 | 0.389
COc1cccc(OCCCN)c1-c1cc(Nc2cnc(C#N)cn2)n[nH]1 [Prexasertib] + CCc1c2c(nc3ccc(O)cc13)-c1cc3c(c(=O)n1C2)COC(=O)[C@]3(O)CC [SN-38] (first compound max 1 µM, 7x7, partner max 0.3 µM) | 0.866 | 0.624 | 0.641 | 0.951 | 0.932 | 0.847 | 1 | 1 | 0.986 | 1 | 1 | 0.995 | 1 | 0.921 | 0.877 | 0.947 | 0.639 | 1 | 0.784 | 0.866
Cc1c2c(nn1C)CSCc1cc(n(C)n1)CSc1cc(c3ccccc3c1)OCCCc1c(C(=O)O)n(C)c3c-2c(Cl)ccc13 [AZD5991] + C[C@@H]1COCCN1C2=NC(=NC(=C2)C3(CC3)[S@](=N)(=O)C)C4=C5C=CNC5=NC=C4 [AZD6738] (first compound max 1 µM, 7x7, partner max 10 µM) | 0.671 | 0.232 | 0.593 | 0.926 | 0.531 | 1 | 1 | 1 | 0.997 | 0.97 | 0.52 | 0.996 | 1 | 0.345 | 0.761 | 0.961 | 0.811 | 1 | 0.44 | 0.669
Cc1cc2ncnn2cc1Nc1ncc2c(n1)n(C1CCOCC1)c(=O)n2C [AZD7648] + C=CCn1c(=O)c2cnc(Nc3ccc(N4CCN(C)CC4)cc3)nc2n1-c1cccc(C(C)(C)O)n1 [AZD1775] (first compound max 10 µM, partner max 1 µM) | 0.545 | 0.343 | 0.713 | 0.846 | 0.552 | 0.828 | 0.953 | 0.909 | 0.96 | 0.976 | 0.401 | 0.754 | 1 | 0.749 | 0.379 | 0.884 | 0.446 | 0.991 | 0.468 | 0.45
NC1(C(=O)N[C@@H](CCO)c2ccc(Cl)cc2)CCN(c2ncnc3[nH]ccc23)CC1 [Capivasertib] + COc1nnc2ccc(N3CCC(c4ccc(OCCN5CCN(C)C(=O)[C@H]5C)cc4)CC3)nn12 [AZD5153] (first compound max 10 µM, 7x7, partner max 1 µM) | 0.496 | 0.206 | 0.376 | 0.682 | 0.559 | 1 | 0.873 | 1 | 0.961 | 0.579 | 0.493 | 1 | 1 | 0.798 | 0.613 | 0.624 | 0.882 | 0.915 | 0.477 | 0.367
COc1cccc(OCCCN)c1-c1cc(Nc2cnc(C#N)cn2)n[nH]1 [Prexasertib] + O=C(c1cc(Cc2n[nH]c(=O)c3ccccc23)ccc1F)N1CCN(C(=O)C2CC2)CC1 [Olaparib] (first compound max 1 µM, 7x7, partner max 10 µM) | 0.609 | 0.326 | 0.668 | 0.785 | 0.78 | 0.882 | 1 | 0.976 | 0.983 | 0.981 | 0.48 | 0.991 | 1 | 0.288 | 0.812 | 0.834 | 0.583 | 1 | 0.479 | 0.826
CC1(C)CCC(CN2CCN(c3ccc(C(=O)NS(=O)(=O)c4ccc(NCC5CCOCC5)c([N+](=O)[O-])c4)c(Oc4cnc5[nH]ccc5c4)c3)CC2)=C(c2ccc(Cl)cc2)C1 [Venetoclax] + COc1cc(Nc2ncc3c(n2)-c2ccc(Cl)cc2C(c2c(F)cccc2OC)=NC3)ccc1C(=O)O [Alisertib] (first compound max 1 µM, 7x7, partner max 10 µM) | 0.727 | 0.279 | 0.147 | 0.647 | 0.539 | 0.633 | 0.896 | 0.964 | 0.661 | 0.866 | 0.476 | 1 | 1 | 0.403 | 0.448 | 0.902 | 0.631 | 0.902 | 0.326 | 0.315
Cc1cc2ncnn2cc1Nc1ncc2c(n1)n(C1CCOCC1)c(=O)n2C [AZD7648] + CCN(CCO)CCCOc1ccc2c(Nc3cc(CC(=O)Nc4cccc(F)c4)[nH]n3)ncnc2c1 [AZD2811] (first compound max 10 µM, 7x7, partner max 1 µM) | 0.244 | 0.228 | 0.237 | 0.386 | 0.377 | 0.493 | 0.973 | 0.787 | 0.432 | 0.794 | 0.217 | 0.85 | 0.935 | 0.33 | 0.142 | 0.625 | 0.376 | 0.932 | 0.456 | 0.287
CC1(C)CCC(CN2CCN(c3ccc(C(=O)NS(=O)(=O)c4ccc(NCC5CCOCC5)c([N+](=O)[O-])c4)c(Oc4cnc5[nH]ccc5c4)c3)CC2)=C(c2ccc(Cl)cc2)C1 [Venetoclax] + C=CCn1c(=O)c2cnc(Nc3ccc(N4CCN(C)CC4)cc3)nc2n1-c1cccc(C(C)(C)O)n1 [AZD1775] (first compound max 1 µM, partner max 1 µM) | 0.939 | 0.241 | 0.792 | 0.93 | 0.394 | 0.75 | 1 | 0.992 | 0.975 | 0.994 | 0.233 | 0.992 | 1 | 0.728 | 0.551 | 0.889 | 0.558 | 0.981 | 0.219 | 0.577
CN(CCO)CC[C@H](CSc1ccccc1)Nc1ccc(S(=O)(=O)NC(=O)c2ccc(N3CCC([C@@H](O)c4ccccc4-c4ccc(Cl)cc4)CC3)cc2)cc1S(=O)(=O)C(F)(F)F [AZD4320] + C[C@@H](Nc1cc(F)cc(F)c1)c1cc(C(=O)N(C)C)cc2c(=O)cc(N3CCOCC3)oc12 [AZD8186] (first compound max 1 µM, 7x7, partner max 3 µM) | 0.966 | 0.935 | 0.312 | 0.5 | 0.507 | 0.414 | 0.996 | 0.714 | 0.573 | 1 | 0.991 | 0.979 | 0.782 | 0.437 | 0.694 | 0.986 | 0.311 | 0.944 | 0.439 | 0.249
